Measured values from patent publication US20240197700A1, “Methods and Compositions for Treating Lysosomal Storage Disorders” (Sanford Health, priority 2021, published 2024).
“Also recorded” adds a separate entry of the source.

Key:
[1] = test system: Cln3^Δex7/8 mice; assay: SubC burden (immunohistochemistry) in brain of Cln3^Δex7/8 mice; format: in vivo, mouse
[2] = test system: Cln3^Δex7/8 mice; assay: Microglial activation (CD68) in brain of Cln3^Δex7/8 mice; format: in vivo, mouse; conditions: for microglial activation (CD68): VPM/VPL of the thalamus and somatosensory cortex
Experimental: FIG. 22(A-B). Short-term chronic treatment with semaglutide impacts glial activation in Cln3^Δex7/8 mice. Beginning at wean, wild type and Cln3^Δex7/8 mice were treated with vehicle or semaglutide 2.571 μg/mouse, 25.71 μg/mouse) through subcutaneous injections three times a week until sacrifice at 16 weeks. Upon sacrifice, a hemisphere of the brain was sectioned at 50 microns on a vibratome; DAB staining immunohistochemistry was then performed using anti-GFAP (Dako, Z0334; 1:5000), anti-CD68 (AbD Serotec, MCA1957; 1:2000), anti-rabbit biotinylated (Vector Labs, BA-1000 1:1000), and anti-rat (Vector Labs, BA-9400 1:1000). Sections were imaged and analyzed using an Aperio Digital Pathology Slide Scanner (AT2) and associated software. Images were extracted from S1BF of the somatosensory cortex, the CA3 of the hippocampus, and the VPM/VPL of the thalamus, key brain regions for Batten disease pathology. Percent area of immunoreactivity were quantified using a threshold analysis in ImageJ™. Statistical analyses were performed using GraphPad Prism™ (v8.4.3; San Diego, CA). […] Increasing concentrations of semaglutide and corresponding genotypes are shown along the x-axis. Nested one-way ANOVA. Mean±S.E.M. Sidak's multiple comparisons test. Compared to the wild type vehicle treated group #p<0.05, ##p<0.01, ###p<0.001, ####p<0.0001. Compared to mutant vehicle treated group *p<0.05, **p<0.01, ***p<0.001, ****p<0.0001.
Specific experimental details are included in figure legends. In general, after collection and preparation, MEFs and PNCs were dosed with vehicle or AF38469 (40 nM, 400 nM. or 4 μM) on DIV3 and DIV5. On DIV7, cells were treated with the following dyes: Hoechst 33342 (1:1000 dilution), LysoTrackerT™ Red DND-99 (1:10,000 dilution), fixed, and imaged. Mice were given vehicle or AF38469 (78.125 μg/ml, 3.125 μg/ml, 0.3125 μg/ml or 0.03125 μg/ml equating approximately to 250 μg/mouse/day, 10 μg/mouse/day, 1 μg/mouse/day, and […], respectively, given a mouse's daily water intake of approximately 3.2 ml per day) in drinking water beginning at wean. Body weight was measured bi-weekly, and a force actimeter test was performed on Cln2^R207X mice at 10 weeks of age. Body weight was measured every month for Cln3^Δex7/8 mice. At 11 and 16 weeks of age, respectively, Cln2^R207X and Cln3^Δex7/8 mice along with age matched wild type control mice were CO2 euthanized and intracardially perfused with PBS. Brains were collected and placed on a 1 mm sagittal brain block. Brains were sliced at the midline and 3 mm right of the midline. One hemisphere was fixed in 4% PFA and sectioned at 50 microns on a vibratome. Immunohistochemistry was performed on free-floating sections. For mitochondrial ATP synthase subunit C (SubC), glial fibrillary acidic protein (GFAP), and cluster of differentiation 68 (CD68) immunolabeling, primary antibodies included anti-SubC (Abcam, ab181243; 1:1000), anti-GFAP (Dako, Z0334; 1:5000), anti-CD68 (AbD Serotec, MCA1957; 1:2000), and secondary antibodies included anti-rabbit biotinylated (Vector Labs, BA-1000 1:1000) and anti-rat (Vector Labs, BA-9400 1:1000). Coverslips were mounted on slides using antifade-mounting media and were stored in the dark before imaging. Sections were imaged and analyzed using an Aperio Digital Pathology Slide Scanner (AT2) and associated software. Images were extracted from S1BF of the somatosensory cortex and the VPM/VPL of the thalamus, with multiple images taken of multiple tissues from each animal.
Short-term chronic treatment with AF38469 impacts glial activation in Cln3^Δex7/8 mice. Beginning at wean, wild type and Cln3^Δex7/8 mice were treated with vehicle (0.2408% DMSO) or AF38469 (0.03125 μg/ml, 0.3125 μg/ml, 3.125 μg/ml, 78.125 μg/ml) continuously through the drinking water continuing until sacrifice at 16 weeks. […]

`Cc1cccc(NC(=O)c2ccc(C(F)(F)F)cc2C(=O)O)n1` [AF38469, 2-((6-methylpyridin-2-yl)carbamoyl)-5-(trifluoromethyl)benzoic acid] was tested, and the SubC accumulation ([1]; overall statement, short term treatment, Cln3^Δex7/8) was “reduces”, the “microglial activation (CD68)” value ([2]; AF38469 higher doses 3.125 μg/ml, 78.125 μg/ml) was “increased or had no impact; also recorded: had no impact” and the “microglial activation (CD68)” value ([2]; AF38469 lower doses 0.03125 μg/ml, 0.3125 μg/ml) was “significantly and potently decreased”.

`CC[C@H](C)[C@H](N)C(=O)NCCN1CCOCC1` [LM11A-31, N-[2-(morpholin-4-yl)ethyl]-L-isoleucinamide] was tested, and the “microglial activation (CD68)” value ([2]; LM11A-31 0.6 mg/mL) was “had no impact” and the “levels of CD68” value ([2]; LM11A-31 0.6 mg/mL, thalamus) was “trends towards decreased levels”.

semaglutide was tested, and the SubC burden ([1]; semaglutide 2.571 μg/mouse s.c., CA3 of the hippocampus) was “had no significant effect”, the SubC burden ([1]; semaglutide 2.571 μg/mouse s.c., VPM/VPL of the thalamus) was “had no significant effect” and the “accumulation of mitochondrial ATP synthase subunit C (SubC)” value ([1]; semaglutide 2.571 μg/mouse, 25.71 μg/mouse s.c., S1BF of the somatosensory cortex) was “had no significant effect”. The SubC burden ([1]; semaglutide 25.71 μg/mouse s.c., CA3 of the hippocampus) was “significantly reduced”, the SubC burden ([1]; semaglutide 25.71 μg/mouse s.c., VPM/VPL of the thalamus) was “significantly elevated” and the “accumulation of microgliosis (CD68)” value ([2]; semaglutide 2.571 μg/mouse, 25.71 μg/mouse s.c., S1BF, CA3, VPM/VPL, vs vehicle Cln3^Δex7/8) was “had no significant effect”. For the same compound, the CD68 immunoreactivity ([2]; semaglutide lower dose 2.571 μg/mouse s.c., S1BF, CA3, VPM/VPL, relative to wild type) was “reduced CD68 immunoreactivity to levels indistinguishable from wild type; also recorded: restored CD68 immunoreactivity to wild type levels”.
